# Values of other authors, collected in US7612172B2, “Nucleic acids and corresponding proteins entitled 282P1G3 useful in treatment and detection of cancer” (Agensys, Inc., priority 2002, dated 2009).
# Key:
# T helper lymphocytes = conditions: regardless of HLA type
# [1] = tested on: LAGE-I tumor specific gene; conditions: lymphoblastoid cells
Molecule,binding to HLA-DR alleles (HLA-DR alleles),stimulation of T helper lymphocyte response (T helper lymphocytes),expression of the LAGE-I tumor specific gene [1]
aKXVAAWTLKAa,bind to most HLA-DR alleles,stimulate the response of T helper lymphocytes from most individuals,–
Nc1ncn([C@H]2C[C@H](O)[C@@H](CO)O2)c(=O)n1 [deoxy-azacytidine],–,–,induced
